Test results taken from article PMC5218480 (PLoS ONE, 2017).

Tested on: MV-4-11 cells
Test: Gene expression microarray analysis (Affymetrix PrimeView) and GSEA
Assay type: cell-based, human
Set-up: RFU PODN (11730768_x_at) / Fold change /veh PODN (11730768_x_at) / RFU LINC00158 (11744669_a_at) / Fold change /veh LINC00158 (11744669_a_at) / RFU DUSP10 (11751237_a_at) / Fold change /veh DUSP10 (11751237_a_at) / RFU ID3 (11757404_x_at) / Fold change /veh ID3 (11757404_x_at) / RFU PLEKHG5 (11737974_s_at) / Fold change /veh PLEKHG5 (11737974_s_at) / RFU LRRC4B (11730491_at) / Fold change /veh LRRC4B (11730491_at) / RFU GIMAP4 (11747438_a_at) / Fold change /veh GIMAP4 (11747438_a_at) / RFU KRT8 (11758183_x_at) / Fold change /veh KRT8 (11758183_x_at) / RFU CNN1 (11734310_a_at) / Fold change /veh CNN1 (11734310_a_at) / RFU VPS37D (11726825_at) / Fold change /veh VPS37D (11726825_at) / RFU C10orf10 (11716522_x_at) / Fold change /veh C10orf10 (11716522_x_at) / RFU KIR2DL2 /// KIR2DL4 /// KIR2DL5A /// KIR2DL5B /// KIR2DS1 /// KIR2DS2 /// KIR2DS3 /// KIR2DS4 /// KIR3DL3 /// KIR3DL3 /// KIR3DS1 (11738374_at) / Fold change /veh KIR2DL2 /// KIR2DL4 /// KIR2DL5A /// KIR2DL5B /// KIR2DS1 /// KIR2DS2 /// KIR2DS3 /// KIR2DS4 /// KIR3DL3 /// KIR3DL3 /// KIR3DS1 (11738374_at) / RFU C1QL1 (11718748_at) / Fold change /veh C1QL1 (11718748_at) / RFU TMPRSS4 (11747572_a_at) / Fold change /veh TMPRSS4 (11747572_a_at) / RFU HAMP (11756126_x_at) / Fold change /veh HAMP (11756126_x_at) / RFU RNFT2 (11725882_a_at) / Fold change /veh RNFT2 (11725882_a_at) / RFU NR4A2 (11747474_a_at) / Fold change /veh NR4A2 (11747474_a_at) / RFU ABCC12 (11746883_a_at) / Fold change /veh ABCC12 (11746883_a_at) / RFU TMEM136 (11760407_x_at) / Fold change /veh TMEM136 (11760407_x_at) / RFU CLDN22 /// WWC2 (11732394_at) / Fold change /veh CLDN22 /// WWC2 (11732394_at) / RFU HLA-DPB1 (11760878_x_at) / Fold change /veh HLA-DPB1 (11760878_x_at) / RFU SPINT1 (11716480_a_at) / Fold change /veh SPINT1 (11716480_a_at) / RFU GAP43 (11754022_s_at) / Fold change /veh GAP43 (11754022_s_at) / RFU A4GNT (11735810_at) / Fold change /veh A4GNT (11735810_at) / RFU PRB3 (11715151_x_at) / Fold change /veh PRB3 (11715151_x_at) / RFU TUBB4B (11761932_at) / Fold change /veh TUBB4B (11761932_at) / RFU CAPN14 (11732068_a_at) / Fold change /veh CAPN14 (11732068_a_at) / RFU TMCC2 (11721928_a_at) / Fold change /veh TMCC2 (11721928_a_at) / RFU IRGQ (11745062_a_at) / Fold change /veh IRGQ (11745062_a_at) / RFU FAM174B (11720279_a_at) / Fold change /veh FAM174B (11720279_a_at) / RFU TMPRSS4 (11748680_a_at) / Fold change /veh TMPRSS4 (11748680_a_at) / RFU FAM212B (11763350_a_at) / Fold change /veh FAM212B (11763350_a_at) / RFU PLEKHG5 (11743358_a_at) / Fold change /veh PLEKHG5 (11743358_a_at) / RFU ZSCAN30 (11745921_a_at) / Fold change /veh ZSCAN30 (11745921_a_at) / RFU CMKLR1 (11741424_a_at) / Fold change /veh CMKLR1 (11741424_a_at) / RFU LOC101060620 /// MAPK8IP1 (11723275_at) / Fold change /veh LOC101060620 /// MAPK8IP1 (11723275_at) / RFU SPTSSB (11747773_x_at) / Fold change /veh SPTSSB (11747773_x_at) / RFU PRSS12 (11739890_at) / Fold change /veh PRSS12 (11739890_at) / RFU BIN1 (11741810_x_at) / Fold change /veh BIN1 (11741810_x_at) / RFU WNT11 (11732464_a_at) / Fold change /veh WNT11 (11732464_a_at) / RFU C10orf10 (11716521_a_at) / Fold change /veh C10orf10 (11716521_a_at) / RFU C5orf56 (11738089_at) / Fold change /veh C5orf56 (11738089_at) / RFU CYB561 (11721691_x_at) / Fold change /veh CYB561 (11721691_x_at) / RFU ANKRD19P (11752326_a_at) / Fold change /veh ANKRD19P (11752326_a_at) / RFU OR2T12 /// OR2T33 /// OR2T8 (11738714_s_at) / Fold change /veh OR2T12 /// OR2T33 /// OR2T8 (11738714_s_at) / RFU VCAN (11748164_a_at) / Fold change /veh VCAN (11748164_a_at) / RFU JSRP1 (11732532_at) / Fold change /veh JSRP1 (11732532_at) / RFU KRTAP10-11 (11738290_x_at) / Fold change /veh KRTAP10-11 (11738290_x_at) / RFU MYO3A (11730013_a_at) / Fold change /veh MYO3A (11730013_a_at) / RFU EBF3 (11725865_a_at) / Fold change /veh EBF3 (11725865_a_at) / RFU CAMK2N1 (11719241_x_at) / Fold change /veh CAMK2N1 (11719241_x_at) / RFU C5orf56 (11738088_a_at) / Fold change /veh C5orf56 (11738088_a_at) / RFU OLFML3 (11715873_a_at) / Fold change /veh OLFML3 (11715873_a_at) / RFU LOC100653217 /// NTM (11731650_a_at) / Fold change /veh LOC100653217 /// NTM (11731650_a_at) / RFU MAPK11 (11762145_a_at) / Fold change /veh MAPK11 (11762145_a_at) / RFU FIZ1 (11724087_x_at) / Fold change /veh FIZ1 (11724087_x_at) / RFU OASL (11726364_x_at) / Fold change /veh OASL (11726364_x_at) / RFU SOX15 (11748057_x_at) / Fold change /veh SOX15 (11748057_x_at) / RFU CD79A (11719716_a_at) / Fold change /veh CD79A (11719716_a_at) / RFU HIST1H1D (11736915_at) / Fold change /veh HIST1H1D (11736915_at) / RFU CASKIN2 (11723855_a_at) / Fold change /veh CASKIN2 (11723855_a_at) / RFU LOC730098 (11760151_x_at) / Fold change /veh LOC730098 (11760151_x_at) / RFU OR4N2 (11742367_at) / Fold change /veh OR4N2 (11742367_at) / RFU PRRT2 (11749266_a_at) / Fold change /veh PRRT2 (11749266_a_at) / RFU SNX32 (11753110_a_at) / Fold change /veh SNX32 (11753110_a_at) / RFU CDHR5 (11726645_a_at) / Fold change /veh CDHR5 (11726645_a_at) / RFU RCAN1 (11760418_a_at) / Fold change /veh RCAN1 (11760418_a_at) / RFU FAM167A (11723789_a_at) / Fold change /veh FAM167A (11723789_a_at) / RFU FAM26E (11764081_at) / Fold change /veh FAM26E (11764081_at) / RFU ISYNA1 (11749810_s_at) / Fold change /veh ISYNA1 (11749810_s_at) / RFU ACY1 (11761880_at) / Fold change /veh ACY1 (11761880_at) / RFU 11764098_at / Fold change /veh 11764098_at / RFU SAMD14 (11745864_x_at) / Fold change /veh SAMD14 (11745864_x_at) / RFU NPB (11741838_a_at) / Fold change /veh NPB (11741838_a_at) / RFU TMPRSS6 (11731388_a_at) / Fold change /veh TMPRSS6 (11731388_a_at) / RFU KRTAP10-2 (11738614_at) / Fold change /veh KRTAP10-2 (11738614_at) / RFU ARHGAP8 /// PRR5-ARHGAP8 (11727945_x_at) / Fold change /veh ARHGAP8 /// PRR5-ARHGAP8 (11727945_x_at) / RFU KRTAP5-7 /// NADSYN1 (11734609_at) / Fold change /veh KRTAP5-7 /// NADSYN1 (11734609_at) / RFU RASL12 (11751679_a_at) / Fold change /veh RASL12 (11751679_a_at) / RFU CDKN2B (11736163_a_at) / Fold change /veh CDKN2B (11736163_a_at) / RFU PRF1 (11729649_at) / Fold change /veh PRF1 (11729649_at) / RFU, ZNF638 /// ZNF638-IT1 / Fold change vs veh, ZNF638 /// ZNF638-IT1 / RFU, PANK3 / Fold change vs veh, PANK3 / RFU, SH3YL1 / Fold change vs veh, SH3YL1 / RFU, ZEB2 / Fold change vs veh, ZEB2 / RFU, NRIP1 / Fold change vs veh, NRIP1 / RFU, PTTG1IP / Fold change vs veh, PTTG1IP / RFU, CAPN2 / Fold change vs veh, CAPN2 / RFU, MED14 / Fold change vs veh, MED14 / RFU, SNORA58 / Fold change vs veh, SNORA58 / RFU, C1orf63 / Fold change vs veh, C1orf63 / RFU, LRRFIP1 / Fold change vs veh, LRRFIP1 / RFU, NDUFAF7 / Fold change vs veh, NDUFAF7 / RFU, SLC12A2 / Fold change vs veh, SLC12A2 / RFU, IBTK / Fold change vs veh, IBTK / RFU, ESF1 / Fold change vs veh, ESF1 / Fold change vs veh, TMEM50B / RFU, TAOK1 / Fold change vs veh, TAOK1 / RFU, ACBD3 / Fold change vs veh, ACBD3 / RFU, TMA16 / Fold change vs veh, TMA16 / RFU, RWDD3 / Fold change vs veh, RWDD3 / RFU, BCAT1 / Fold change vs veh, BCAT1 / RFU, EDEM3 / Fold change vs veh, EDEM3 / RFU, TMEM33 / Fold change vs veh, TMEM33 / RFU, WDR75 / Fold change vs veh, WDR75 / RFU, AHCTF1 / Fold change vs veh, AHCTF1 / RFU, TFRC / Fold change vs veh, TFRC / RFU, ZDHHC17 / Fold change vs veh, ZDHHC17 / RFU, NOM1 / Fold change vs veh, NOM1 / RFU, ARL8B / Fold change vs veh, ARL8B / RFU, ZBTB11 / Fold change vs veh, ZBTB11 / RFU, TAMM41 / Fold change vs veh, TAMM41 / RFU, KIAA1704 /// LOC100996395 / Fold change vs veh, KIAA1704 /// LOC100996395 / RFU, ING1 / Fold change vs veh, ING1 / RFU, TRMT61B / Fold change vs veh, TRMT61B / RFU, FUBP3 / Fold change vs veh, FUBP3 / RFU, TP53 / Fold change vs veh, TP53 / RFU, TNKS2 / Fold change vs veh, TNKS2 / RFU, ZFP14 / Fold change vs veh, ZFP14 / RFU, ACTR2 / Fold change vs veh, ACTR2 / RFU, PPP3R1 / Fold change vs veh, PPP3R1 / RFU, PIK3R1 / Fold change vs veh, PIK3R1 / RFU, HNRNPA1 / Fold change vs veh, HNRNPA1 / RFU, RNF170 / Fold change vs veh, RNF170 / RFU, ZNF28 / Fold change vs veh, ZNF28 / RFU, RNGTT / Fold change vs veh, RNGTT / RFU, OGT / Fold change vs veh, OGT / RFU, BRD1 / Fold change vs veh, BRD1 / RFU, MARS / Fold change vs veh, MARS / RFU, ZNF655 / Fold change vs veh, ZNF655 / RFU, FAHD1 / Fold change vs veh, FAHD1 / RFU, BDP1 / Fold change vs veh, BDP1 / RFU, LRRCC1 / Fold change vs veh, LRRCC1 / RFU, ARID1A / Fold change vs veh, ARID1A / RFU, ZNF146 / Fold change vs veh, ZNF146 / RFU, ZNF330 / Fold change vs veh, ZNF330 / RFU, GPN3 / Fold change vs veh, GPN3 / RFU, C9orf123 / Fold change vs veh, C9orf123 / RFU, N4BP2L2 / Fold change vs veh, N4BP2L2 / RFU, ARFIP1 / Fold change vs veh, ARFIP1 / RFU, FAM179B / Fold change vs veh, FAM179B / RFU, BCL10 / Fold change vs veh, BCL10 / RFU, UHRF1BP1L / Fold change vs veh, UHRF1BP1L / RFU, BET1 / Fold change vs veh, BET1 / RFU, CNOT2 / Fold change vs veh, CNOT2 / RFU, ZNF268 / Fold change vs veh, ZNF268 / Fold change vs veh, ZNF507 / RFU, DGCR2 / Fold change vs veh, DGCR2 / RFU, WDSUB1 / Fold change vs veh, WDSUB1 / Fold change vs veh, HSP90B1 /// MIR3652 / RFU, ADSS / Fold change vs veh, ADSS / RFU, GK / Fold change vs veh, GK / RFU, ZNF148 / Fold change vs veh, ZNF148 / RFU, TAF9 / Fold change vs veh, TAF9 / RFU, SLC1A5 / Fold change vs veh, SLC1A5 / RFU, SLMO2 / Fold change vs veh, SLMO2 / RFU, ABCC4 / Fold change vs veh, ABCC4 / RFU, LOC101060439 /// RAP1B / Fold change vs veh, LOC101060439 /// RAP1B / RFU, RFX7 / Fold change vs veh, RFX7 / RFU, GTPBP10 / Fold change vs veh, GTPBP10 / RFU, CNEP1R1 / Fold change vs veh, CNEP1R1 / RFU, BIVM-ERCC5 /// ERCC5 / Fold change vs veh, BIVM-ERCC5 /// ERCC5 / RFU, ILF3 / Fold change vs veh, ILF3 / RFU 11762660_at / Fold change /veh 11762660_at / RFU VCAN (11757783_s_at) / Fold change /veh VCAN (11757783_s_at) / RFU DDX43 (11728927_at) / Fold change /veh DDX43 (11728927_at) / RFU KRT8 (11758188_x_at) / Fold change /veh KRT8 (11758188_x_at) / RFU NKD1 (11759106_at) / Fold change /veh NKD1 (11759106_at) / RFU SRD5A1 (11742802_a_at) / Fold change /veh SRD5A1 (11742802_a_at) / RFU TPSAB1 /// TPSB2 (11721975_s_at) / Fold change /veh TPSAB1 /// TPSB2 (11721975_s_at) / RFU GSTM3 (11746129_a_at) / Fold change /veh GSTM3 (11746129_a_at) / RFU IL23R (11737362_x_at) / Fold change /veh IL23R (11737362_x_at) / RFU TMEM51 (11727254_a_at) / Fold change /veh TMEM51 (11727254_a_at) / RFU PIWIL2 (11732686_x_at) / Fold change /veh PIWIL2 (11732686_x_at) / RFU ORM1 (11744905_x_at) / Fold change /veh ORM1 (11744905_x_at) / RFU CCDC152 (11743942_at) / Fold change /veh CCDC152 (11743942_at) / RFU ECM1 (11717891_a_at) / Fold change /veh ECM1 (11717891_a_at) / RFU IL23R (11748794_a_at) / Fold change /veh IL23R (11748794_a_at) / RFU TNFAIP8L3 (11732012_x_at) / Fold change /veh TNFAIP8L3 (11732012_x_at) / RFU MBOAT4 (11741988_at) / Fold change /veh MBOAT4 (11741988_at) / RFU 11764193_at / Fold change /veh 11764193_at / RFU TMEM53 (11763286_at) / Fold change /veh TMEM53 (11763286_at) / RFU MAGEB2 (11727129_at) / Fold change /veh MAGEB2 (11727129_at) / RFU TMEM200A (11744735_a_at) / Fold change /veh TMEM200A (11744735_a_at) / RFU CCDC152 (11751479_a_at) / Fold change /veh CCDC152 (11751479_a_at) / RFU FAM211A (11726209_a_at) / Fold change /veh FAM211A (11726209_a_at) / RFU RGS16 (11746705_a_at) / Fold change /veh RGS16 (11746705_a_at) / RFU VCAN (11755009_s_at) / Fold change /veh VCAN (11755009_s_at) / RFU RHOB (11743442_s_at) / Fold change /veh RHOB (11743442_s_at) / RFU RGS16 (11720943_a_at) / Fold change /veh RGS16 (11720943_a_at) / RFU RGS16 (11720944_at) / Fold change /veh RGS16 (11720944_at) / RFU, VPS4B / Fold change vs veh, VPS4B / RFU, CREB1 / Fold change vs veh, CREB1 / RFU, DNAJC13 / Fold change vs veh, DNAJC13 / RFU, GNAQ / Fold change vs veh, GNAQ / RFU, CDK5R1 / Fold change vs veh, CDK5R1 / RFU, ZRANB3 / Fold change vs veh, ZRANB3 / RFU, CUL4A / Fold change vs veh, CUL4A / RFU, CCNY / Fold change vs veh, CCNY / RFU, UFL1 / Fold change vs veh, UFL1 / RFU, COG3 / Fold change vs veh, COG3 / RFU, DIAPH2 / Fold change vs veh, DIAPH2 / RFU, SKA2 / Fold change vs veh, SKA2 / RFU, AFF3 / Fold change vs veh, AFF3 / RFU, LMF1 / Fold change vs veh, LMF1 / RFU, IPO11 / Fold change vs veh, IPO11 / RFU, DFFB / Fold change vs veh, DFFB / RFU, FOXP1 / Fold change vs veh, FOXP1 / RFU, CARD8 / Fold change vs veh, CARD8 / RFU, STRN3 / Fold change vs veh, STRN3 / RFU, ADK / Fold change vs veh, ADK / RFU, RASSF2 / Fold change vs veh, RASSF2 / RFU, WIPF1 / Fold change vs veh, WIPF1 / RFU, LARP1B / Fold change vs veh, LARP1B / RFU, RASA1 / Fold change vs veh, RASA1 / RFU, RB1 / Fold change vs veh, RB1 / RFU, PPFIA1 / Fold change vs veh, PPFIA1 / RFU, MAT2A / Fold change vs veh, MAT2A / RFU, CCT5 / Fold change vs veh, CCT5 / RFU, WDR92 / Fold change vs veh, WDR92 / RFU, CUX1 / Fold change vs veh, CUX1 / RFU, TTC7A / Fold change vs veh, TTC7A / RFU, TMEM135 / Fold change vs veh, TMEM135 / RFU, DEPTOR / Fold change vs veh, DEPTOR / RFU, CPM / Fold change vs veh, CPM / RFU, DNAJB6 / Fold change vs veh, DNAJB6 / RFU, CACNA2D3 / Fold change vs veh, CACNA2D3 / RFU, DTX4 / Fold change vs veh, DTX4 / RFU, TFCP2 / Fold change vs veh, TFCP2 / RFU, GMCL1 /// GMCL1P1 / Fold change vs veh, GMCL1 /// GMCL1P1 / RFU, AEBP2 / Fold change vs veh, AEBP2 / RFU, SNHG1 /// SNORD22 /// SNORD25 /// SNORD26 /// SNORD27 /// SNORD28 /// SNORD29 /// SNORD31 / Fold change vs veh, SNHG1 /// SNORD22 /// SNORD25 /// SNORD26 /// SNORD27 /// SNORD28 /// SNORD29 /// SNORD31 / Fold change (Aza/veh), C12orf56 (ProbeSet 11735607_a_at) / Fold change (ACY-1035/veh), C12orf56 (ProbeSet 11735607_a_at) / Fold change (Aza/veh), FGFR1OP (ProbeSet 11751329_s_at) / Fold change (ACY-1035/veh), FGFR1OP (ProbeSet 11751329_s_at) / Fold change (Aza/veh), VPS36 (ProbeSet 11739960_a_at) / Fold change (ACY-1035/veh), VPS36 (ProbeSet 11739960_a_at) / RFU SYPL1 (11715823_x_at) / Fold change /veh SYPL1 (11715823_x_at) / RFU IGFBP7 (11715501_s_at) / Fold change /veh IGFBP7 (11715501_s_at) / RFU REEP3 (11722064_at) / Fold change /veh REEP3 (11722064_at) / RFU IGLL1 (11728026_x_at) / Fold change /veh IGLL1 (11728026_x_at): dose or concentration left out as unconfirmed
Settings: MV-4-11 cells, 48 hours

## Nc1ccc(-c2cccs2)cc1NC(=O)c1ccc2c(c1)cc(C1CC1)n2CCN1CCOCC1 [ACY-1035]
  RFU CDHR5 (11726645_a_at): 42.85 RFU
